The target in data set [1] is T1, PD-1/PD-L1 interaction (Homo sapiens, UniProt Q9NZQ7).
T1 construct: purchased CisBio 63ADK000CPAPEG
The data set is described as follows: PD-1/PD-L1 HTRF binding assay (CisBio kit). The note with it: HTRF PD1/PD-L1 inhibition assay. In outline:
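HTRF kit assay: compound was preincubated 15 min with tagged PD-L1 and PD-1 proteins, then Eu-cryptate and XL665 anti-tag antibodies were added for 1 h at room temperature. Readout was the 665/620 nm ratio ×10^4. IC50 was binned as A <100 nM, B 100–500 nM, C >500 nM.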
A general note: TR-FRET usually uses a lanthanide donor and a delayed reading to cut background.

A short description of data set [2]: Metabolic stability in human liver microsomes. In kind it is in vitro ADME. The following applies: human liver microsomes 1.0 mg/mL, compound 1 μM, NADPH, first number of HLM/MLM cell. The text has this:
(§1) Metabolic Stability in Liver Microsomes
(§2) The purpose of this experiment is to measure the metabolic half-life of NCEs in sub-cellular fractions such as human liver microsomes (HLM) or mouse liver microsomes (MLM). This provides an in vitro means to calculate intrinsic hepatic clearance, and to support the prediction of human pharmacokinetics. This approach has been successfully utilized at early phase of drug discovery projects, to provide SAR input for reducing metabolic instability and for predicting in vivo hepatic clearance.
(§3) Procedure: Potassium phosphate buffer (66.7 mM, pH 7.4) containing liver microsomes (mouse and human) (1.0 mg/mL) was pre-incubated separately with compound (1 μM) and positive control (verapamil, 1 μM) in a 37° C. water bath for 5 min. The reactions were initiated by adding 20 μL of 10 mM NADPH. Reactions without NADPH (0 and 30 min) were also incubated to rule out non-NADPH metabolism or chemical instability in the incubation buffer. All reactions were terminated using 200 μL of ice-cold acetonitrile containing internal standard at 0, 5, 15 and 30 min. The vials were centrifuged at 3000 rpm for 15 min. The supernatants thus obtained were analyzed on LC-MS/MS to monitor the disappearance of test compound.
(Liver microsomes are a subcellular fraction often used to study metabolism.)

Data set [3] in a line: Metabolic stability in mouse liver microsomes. In kind it is in vitro ADME. The note with it: mouse liver microsomes 1.0 mg/mL, compound 1 μM, NADPH, second number of HLM/MLM cell.
From the text: as §1, §2, §3

Data set [4] in a line: Brain exposure study in mice by IV route. In kind it is in vivo. The following applies: male, Balb/c, mouse; for Kp at 0.5 h: brain/plasma, read-out: Brain/Plasma ratio. The text has this:
Institutional Animal Ethical Committee (IAEC) of Jubilant Biosys (IAEC/JDC/2019/188R (for Mice) and IAEC/JDC/2019/189R (for Rat) nominated by CPCSEA (Committee for the Purpose of Control and Supervision of Experiments on Animals) approved the mice and rat pharmacokinetic experiments. Male Balb/c mice (˜6-8 weeks old with body weight range of 22-25 g) and male SD rats (6-8 weeks old with body weight range of 200-250 g) were procured from Vivo Biotech, Hyderabad, India. Animals were quarantined in Jubilant Biosys Animal House for a period of 7 days with a 12:12 h light: dark cycles, and prior to the study the animals were stratified as per body weight.
Procedure for Mice: Intravenous pharmacokinetics study was done at doses of 5, 10 mg/kg respectively at dose volume 5 mL/kg for IV route. Sparse sampling was done and at each time point three mice were used for blood sampling (˜100 μL) were collected from retro-orbital plexus at 0.083 (Only for IV) and 24 h. Blood samples collected in tubes containing K2 EDTA as anticoagulant and centrifuged for 5 min at 10,000 rpm in a refrigerated centrifuge (Biofuge, Heraeus, Germany) maintained at 4° C. for plasma separation. Group I (IV) received compound by intravenously by tail vein at […] in solution formulation. Blood concentration-time data of compound was analyzed by non-compartmental method using Phoenix WinNonlin Version 8.1.
Brain Exposure Study in Mice
The mice were placed in isoflurane anesthesia chamber; following complete anesthesia (3-5% isoflurane) blood sample (0.5 mL) was collected from retro-orbital plexus using mice capillary.
The mice were sacrificed by cervical dislocation. The dorsal surface of the skull was peeled away from the brain using bone cutter, dura matter was gently removed from surface of brain with help of forceps. Brain was gently taken out away from the head and placed in PBS buffer to remove blood. Brain was placed on blotting paper to remove the blood spots and transferred in pre-labelled tube. The isolated brain was weighed and homogenised using 5× volume of phosphate buffer saline (pH-7.4). During homogenization the brain homogenate was kept in ice till sample processing. The homogenate was processed by specified extraction process and analyzed by LC-MS/MS.
Evaluation of Brain Exposure Data by IV Route

The values below come from patent publication US20240246931A1, “COMPOUNDS AS PD1/PD-L1 INHIBITORS AND METHODS THEREOF” (JUBILANT PRODEL LLC, priority 2021, published 2024).

Read-outs that look alike come from different tables or passages of the source. Some results are limits rather than exact numbers.

T1 sequence (Q9NZQ7 19-238 limits assumed): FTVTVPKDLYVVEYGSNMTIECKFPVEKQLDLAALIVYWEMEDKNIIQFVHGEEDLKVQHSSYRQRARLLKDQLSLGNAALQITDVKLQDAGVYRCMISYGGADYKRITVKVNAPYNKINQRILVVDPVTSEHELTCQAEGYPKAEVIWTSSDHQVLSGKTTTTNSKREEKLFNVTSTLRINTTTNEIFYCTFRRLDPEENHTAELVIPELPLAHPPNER

The term IC50 denotes the concentration that inhibits the measured activity by half. High values mean a need for much substance, low ones inhibition by little substance. In the case of `Cc1c(COc2cc(OCCCCF)c(CN3CCCC[C@H]3CO)c3c2CCC3)cccc1-c1ccccc1` [Example 31, (S)-(1-((5-(4-fluorobutoxy)-7-((2-methyl-[1,1′-biphenyl]-3-yl)methoxy)-2,3-dihydro-1H-inden-4-yl)methyl)piperidin-2-yl)methanol], the half-inhibitory concentration (IC50) in data set [1] was less than 100 nM. Also, the “HLM % remaining @ 30 min” value in data set [2] came to 65%. Moreover, the “MLM % remaining @ 30 min” value in data set [3] came out at 79%. Also, the concentration at 0.5 h in data set [4] (brain, 5 mg/kg, 5 mpk, read-out: Brain (ng/g) Mean) stood at 2450 ng/g; in data set [4] (plasma, 5 mg/kg, 5 mpk, read-out: Plasma (ng/mL) Mean) it was 501 ng/mL. Further, in data set [4] (5 mg/kg, 5 mpk), the Kp at 0.5 h is 4.9.

Compound `Cc1c(COc2cc(OCc3cccc(C#N)c3)c(CN3CCCC4CC43CO)c3c2CCC3)cccc1-c1ccccc1` (stereo not drawn) [Example 34, 3-(((4-((1-(hydroxymethyl)-2-azabicyclo[4.1.0]heptan-2-yl)methyl)-7-((2-methyl-[1,1′-biphenyl]-3-yl)methoxy)-2,3-dihydro-1H-inden-5-yl)oxy)methyl)benzonitrile] gave an IC50 in data set [1] of less than 100 nM. Further, the “HLM % remaining @ 30 min” value in data set [2] was 8%. Also, the “MLM % remaining @ 30 min” value in data set [3] is reported as 5%.

Regarding `Cc1c(COc2cc(OCc3cncc(C#N)c3)c(CN3CCCC[C@H]3CO)c3c2CCC3)cccc1-c1ccccc1` [Example 1, (S)-5-(((4-((2-(hydroxymethyl)piperidin-1-yl)methyl)-7-((2-methyl-[1,1′-biphenyl]-3-yl)methoxy)-2,3-dihydro-1H-inden-5-yl)oxy)methyl)nicotinonitrile], in data set [1], the IC50 is less than 100 nM. Moreover, the “HLM % remaining @ 30 min” value in data set [2] was found to be 72%. Besides, the “MLM % remaining @ 30 min” value in data set [3] was 83%.

Turning to `Cc1c(COc2cc(OCc3cncc(C#N)c3)c(CN3CCOC[C@H]3CO)c3c2CCC3)cccc1-c1ccccc1` [Example 9, (R)-5-(((4-((3-(hydroxymethyl)morpholino)methyl)-7-((2-methyl-[1,1′-biphenyl]-3-yl)methoxy)-2,3-dihydro-1H-inden-5-yl)oxy)methyl)nicotinonitrile], the IC50 in data set [1] is less than 100 nM. Further, the “HLM % remaining @ 30 min” value in data set [2] turned out to be 8%. Besides, the “MLM % remaining @ 30 min” value in data set [3] worked out at 21%.

For the compound `Cc1c(COc2cc(OCc3cncc(C#N)c3)c(CN3CCC[C@H]3CO)c3c2CCC3)cccc1-c1ccccc1` [Example 8, (S)-5-(((4-((2-(hydroxymethyl)pyrrolidin-1-yl)methyl)-7-((2-methyl-[1,1′-biphenyl]-3-yl)methoxy)-2,3-dihydro-1H-inden-5-yl)oxy)methyl)nicotinonitrile], the IC50 in data set [1] was less than 100 nM. Moreover, the “HLM % remaining @ 30 min” value in data set [2] came to 61%. The “MLM % remaining @ 30 min” value in data set [3] was determined as 85%.

In data set [1], `Cc1c(COc2cc(OCCF)c(CN3CCCC[C@H]3CO)c3c2CCC3)cccc1-c1ccccc1` [Example 27, (S)-(1-((5-(2-fluoroethoxy)-7-((2-methyl-[1,1′-biphenyl]-3-yl)methoxy)-2,3-dihydro-1H-inden-4-yl)methyl)piperidin-2-yl)methanol] displayed an IC50 of less than 100 nM. Further, the “HLM % remaining @ 30 min” value in data set [2] was 91%. In data set [3], the “MLM % remaining @ 30 min” value was 84%. Besides, the concentration at 0.5 h in data set [4] (brain, 10 mg/kg, 10 mpk, read-out: Brain (ng/g) Mean) was 11600 ng/g; in data set [4] (plasma, 10 mg/kg, 10 mpk, read-out: Plasma (ng/mL) Mean) it was 949 ng/mL. The Kp at 0.5 h in data set [4] (10 mg/kg, 10 mpk) was 12.2.

In turn, `Cc1c(COc2cc(OCCF)c(CN3CCC[C@H]3CO)c3c2CCC3)cccc1-c1ccccc1` [Example 28, (S)-(1-((5-(2-fluoroethoxy)-7-((2-methyl-[1,1′-biphenyl]-3-yl)methoxy)-2,3-dihydro-1H-inden-4-yl)methyl)pyrrolidin-2-yl)methanol] gave an IC50 in data set [1] of less than 100 nM. For the same compound, the “HLM % remaining @ 30 min” value in data set [2] is given as 74%. Moreover, the “MLM % remaining @ 30 min” value in data set [3] is reported as 82%.

In turn, `Cc1c(COc2cc(OCc3cc(C#N)c[n+]([O-])c3)c(CN3CCC[C@H]3CO)c3c2CCC3)cccc1-c1ccccc1` [Example 44, (S)-3-cyano-5-(((4-((2-(hydroxymethyl)pyrrolidin-1-yl)methyl)-7-((2-methyl-[1,1′-biphenyl]-3-yl)methoxy)-2,3-dihydro-1H-inden-5-yl)oxy)methyl)pyridine 1-oxide] had an IC50 in data set [1] of less than 100 nM. Besides, the “HLM % remaining @ 30 min” value in data set [2] is 33%. Moreover, the “MLM % remaining @ 30 min” value in data set [3] was found to be 15%.
